≈ marks a conversion by molar mass, not a printed value.
Key:
E. coli SKF 12140 = test: In vitro antibacterial activity, standard agar-dilution test (MIC); type: cell-based; details: inoculum about 10^4 CFU/ml, 18-24 h at 37° C.
Procedure: (§1) The culture medium ISOSENSITEST BROTH (Oxoid) and the colture medium TODD-[…] BROTH (Difco) are used for growing staphylococci and streptococci, respectively. Broth cultures are diluted so that the final inoculum is about 10^4 colony forming units/ml (CFU/ml).

[1] = test system: Proteus vulgaris X 19H ATCC 881; test: as above; type: cell-based; details: inoculum about 10^4 CFU/ml, 18-24 h at 37° C.
Procedure: as §1

[2] = test system: Pseudomonas aeruginosa ATCC 10145; test: as above; type: cell-based; details: inoculum about 10^4 CFU/ml, 18-24 h at 37° C.
Procedure: as §1

S. aureus Tour = test: as above; type: cell-based; details: inoculum about 10^4 CFU/ml, 18-24 h at 37° C.
Procedure: as §1

[3] = test system: S. epidermidis ATCC 12228; test: as above; type: cell-based; details: inoculum about 10^4 CFU/ml, 18-24 h at 37° C.
Procedure: as §1

S. faecalis ATCC 7080 = test: as above; type: cell-based; details: inoculum about 10^4 CFU/ml, 18-24 h at 37° C.
Procedure: as §1

S. pneumoniae UC 41 = test: as above; type: cell-based; details: inoculum about 10^4 CFU/ml, 18-24 h at 37° C.
Procedure: as §1

S. pyogenes C 203 = test: as above; type: cell-based; details: inoculum about 10^4 CFU/ml, 18-24 h at 37° C.
Procedure: as §1

S. pyogenes L 49 = test: In vivo test in mice experimentally infected with S. pyogenes L 49 (ED50); details: mice infected with S. pyogenes L 49; for ED50, route of administration os.: oral

Row | Compound | MIC E. coli SKF 12140 (E. coli SKF 12140) [µg/mL] | MIC Proteus vulgaris X 19H ATCC 881 [1] [µg/mL] | MIC Pseudomonas aeruginosa ATCC 10145 [2] [µg/mL] | MIC S. aureus Tour (S. aureus Tour) [µg/mL] | MIC S. epidermidis ATCC 12228 [3] [µg/mL] | MIC S. faecalis ATCC 7080 (S. faecalis ATCC 7080) [µg/mL] | MIC S. pneumoniae UC 41 (S. pneumoniae UC 41) [µg/mL] | MIC S. pyogenes C 203 (S. pyogenes C 203) [µg/mL] | ED50, route of administration os. (S. pyogenes L 49) [mg/kg] | ED50, route of administration s.c (S. pyogenes L 49) [mg/kg]
1 | CCN1CCCC1CNC(=O)C1NC(=O)C2NC(=O)C(NC(=O)C3NC(=O)C4NC(=O)C(Cc5ccc(c(Cl)c5)Oc5cc3cc(c5O)Oc3ccc(cc3Cl)C2O)NC(=O)C(N)c2ccc(O)c(c2)Oc2cc(O)cc4c2)c2ccc(O)c(c2)-c2c(O)cc(O)cc21.Cl.Cl (stereo not drawn) [Compound 79] | 4 | 32 | 64 | 0.06 | 0.06 | 0.12 | 0.06 | 0.06 | > 300 | 1.25
2 | CN(C)CCN(C)C(=O)C1NC(=O)C2NC(=O)C(NC(=O)C3NC(=O)C4NC(=O)C(Cc5ccc(c(Cl)c5)Oc5cc3cc(c5O)Oc3ccc(cc3Cl)C2O)NC(=O)C(N)c2ccc(O)c(c2)Oc2cc(O)cc4c2)c2ccc(O)c(c2)-c2c(O)cc(O)cc21 (stereo not drawn) [Compound 93] | 8 (≈ 6.23 µM) | 64 (≈ 49.9 µM) | 64 (≈ 49.9 µM) | 0.06 (≈ 0.0468 µM) | 0.06 (≈ 0.0468 µM) | 0.12 (≈ 0.0935 µM) | 0.06 (≈ 0.0468 µM) | 0.06 (≈ 0.0468 µM) | > 300 | 1.25
3 | CN(C)CCNC(=O)C1NC(=O)C2NC(=O)C(NC(=O)C3NC(=O)C4NC(=O)C(Cc5ccc(c(Cl)c5)Oc5cc3cc(c5O)Oc3ccc(cc3Cl)C2O)NC(=O)C(N)c2ccc(O)c(c2)Oc2cc(O)cc4c2)c2ccc(O)c(c2)-c2c(O)cc(O)cc21.Cl.Cl (stereo not drawn) [Compound 94] | 4 | 32 | 16 | 0.06 | 0.06 | 0.12 | 0.06 | 0.06 | > 300 | 1.25

Now from value to compound, other results behind:

Row | MIC E. coli SKF 12140 (E. coli SKF 12140) [µg/mL] | MIC Proteus vulgaris X 19H ATCC 881 [1] [µg/mL] | MIC Pseudomonas aeruginosa ATCC 10145 [2] [µg/mL] | MIC S. aureus Tour (S. aureus Tour) [µg/mL] | MIC S. epidermidis ATCC 12228 [3] [µg/mL] | MIC S. faecalis ATCC 7080 (S. faecalis ATCC 7080) [µg/mL] | MIC S. pneumoniae UC 41 (S. pneumoniae UC 41) [µg/mL] | MIC S. pyogenes C 203 (S. pyogenes C 203) [µg/mL] | Compound | ED50, route of administration os. (S. pyogenes L 49) [mg/kg] | ED50, route of administration s.c (S. pyogenes L 49) [mg/kg]
4 | 8 (≈ 6.3 µM) | 32 (≈ 25.2 µM) | 32 (≈ 25.2 µM) | 0.06 (≈ 0.0473 µM) | 0.06 (≈ 0.0473 µM) | 0.12 (≈ 0.0946 µM) | 0.12 (≈ 0.0946 µM) | 0.06 (≈ 0.0473 µM) | NCCCCNC(=O)C1NC(=O)C2NC(=O)C(NC(=O)C3NC(=O)C4NC(=O)C(Cc5ccc(c(Cl)c5)Oc5cc3cc(c5O)Oc3ccc(cc3Cl)C2O)NC(=O)C(N)c2ccc(O)c(c2)Oc2cc(O)cc4c2)c2ccc(O)c(c2)-c2c(O)cc(O)cc21 (stereo not drawn) [Compound 99] | – | –
5 | 4 (≈ 3.08 µM) | 64 (≈ 49.3 µM) | 64 (≈ 49.3 µM) | 0.06 (≈ 0.0463 µM) | 0.06 (≈ 0.0463 µM) | 0.12 (≈ 0.0925 µM) | 0.06 (≈ 0.0463 µM) | 0.06 (≈ 0.0463 µM) | NCCCCCCNC(=O)C1NC(=O)C2NC(=O)C(NC(=O)C3NC(=O)C4NC(=O)C(Cc5ccc(c(Cl)c5)Oc5cc3cc(c5O)Oc3ccc(cc3Cl)C2O)NC(=O)C(N)c2ccc(O)c(c2)Oc2cc(O)cc4c2)c2ccc(O)c(c2)-c2c(O)cc(O)cc21 (stereo not drawn) [Compound 102] | – | –
6 | 64 (≈ 45.4 µM) | > 128 | 128 (≈ 90.7 µM) | 2 (≈ 1.42 µM) | 0.5 (≈ 0.354 µM) | 1 (≈ 0.709 µM) | 0.5 (≈ 0.354 µM) | 0.5 (≈ 0.354 µM) | CCCCOC(=O)C(CCCNC(=N)N)NC(=O)C1NC(=O)C2NC(=O)C(NC(=O)C3NC(=O)C4NC(=O)C(Cc5ccc(c(Cl)c5)Oc5cc3cc(c5O)Oc3ccc(cc3Cl)C2O)NC(=O)C(N)c2ccc(O)c(c2)Oc2cc(O)cc4c2)c2ccc(O)c(c2)-c2c(O)cc(O)cc21 (stereo not drawn) [Compound 103] | – | –

— US5521155A, “Amides of teicoplanin compounds” (Gruppo Lepetit S.p.A, priority 1985, dated 1996)
